Assay results published in the NIST ThermoML archive (doi:10.1016/j.jct.2017.07.016).
± gives the expanded uncertainty stated by the source.

Legend:
[1] = 96.7 kPa, Liquid; for viscosity: Capillary tube (Ostwald / Ubbelohde) method; for mass density: Vibrating tube method
[2] = xn = mol fraction of the nth substance listed; settings: 96.7 kPa, Liquid, x2 = 0; for viscosity: Capillary tube (Ostwald / Ubbelohde) method; for mass density: Vibrating tube method

CCCCCCn1cc[n+](C)c1.[Cl-] [1-hexyl-3-methylimidazolium chloride]
[1]
Settings	mass density [kg/m3]	viscosity [mPa·s]
303.15 K	1036.07 ± 2.2	5718.5 ± 960
308.15 K	1033.22 ± 2.2	3430.8 ± 560
313.15 K	1030.38 ± 2.2	2146.1 ± 350
318.15 K	1027.56 ± 2.2	1390.4 ± 220
323.15 K	1024.75 ± 2.2	928.1 ± 150
328.15 K	1021.92 ± 2.2	638.79 ± 100
333.15 K	1019.13 ± 2.2	453.59 ± 70
338.15 K	1016.38 ± 2.2	327.52 ± 50
343.15 K	1013.65 ± 2.2	243.04 ± 37
348.15 K	1010.91 ± 2.2	183.45 ± 28
353.15 K	1008.18 ± 2.2	140.06 ± 21

CC(=O)N(C)C [N,N-dimethylethanamide]
[1]
Settings	mass density [kg/m3]	viscosity [mPa·s]
303.15 K	931.85 ± 2	0.891 ± 0.13
308.15 K	927.26 ± 2	0.834 ± 0.12
313.15 K	922.66 ± 2	0.785 ± 0.12
318.15 K	918.06 ± 2	0.739 ± 0.11
323.15 K	913.44 ± 1.9	0.698 ± 0.11
328.15 K	908.81 ± 1.9	0.661 ± 0.099
333.15 K	904.16 ± 1.9	0.627 ± 0.094
338.15 K	899.53 ± 1.9	0.598 ± 0.09
343.15 K	894.87 ± 1.9	0.567 ± 0.085
348.15 K	890.19 ± 1.9	0.541 ± 0.081
353.15 K	885.51 ± 1.9	0.516 ± 0.078

CC(=O)N(C)C [N,N-dimethylethanamide] + CCCCCCn1cc[n+](C)c1.[Cl-]
[2]
Settings	mass density [kg/m3]	viscosity [mPa·s]
303.15 K	931.85 ± 2	0.891 ± 0.13
308.15 K	927.26 ± 2	0.834 ± 0.12
313.15 K	922.66 ± 2	0.785 ± 0.12
318.15 K	918.06 ± 2	0.739 ± 0.11
323.15 K	913.44 ± 1.9	0.698 ± 0.11
328.15 K	908.81 ± 1.9	0.661 ± 0.099
333.15 K	904.16 ± 1.9	0.627 ± 0.094
338.15 K	899.53 ± 1.9	0.598 ± 0.09
343.15 K	894.87 ± 1.9	0.567 ± 0.085
348.15 K	890.19 ± 1.9	0.541 ± 0.081
353.15 K	885.51 ± 1.9	0.516 ± 0.078

C[S+](C)[O-] [dimethyl sulfoxide]
[1]
Settings	mass density [kg/m3]	viscosity [mPa·s]
303.15 K	1090.29 ± 2.2	1.8 ± 0.27
308.15 K	1085.28 ± 2.2	1.665 ± 0.25
313.15 K	1080.3 ± 2.2	1.529 ± 0.23
318.15 K	1075.31 ± 2.2	1.407 ± 0.21
323.15 K	1070.32 ± 2.2	1.304 ± 0.2
328.15 K	1065.33 ± 2.1	1.211 ± 0.18
333.15 K	1060.34 ± 2.1	1.127 ± 0.17
338.15 K	1055.34 ± 2.1	1.056 ± 0.16
343.15 K	1050.35 ± 2.1	0.989 ± 0.15
348.15 K	1045.34 ± 2.1	0.931 ± 0.14
353.15 K	1040.33 ± 2.1	0.878 ± 0.13

C[S+](C)[O-] [dimethyl sulfoxide] + CCCCCCn1cc[n+](C)c1.[Cl-]
[2]
Settings	mass density [kg/m3]	viscosity [mPa·s]
303.15 K	1090.29 ± 2.2	1.8 ± 0.27
308.15 K	1085.28 ± 2.2	1.665 ± 0.25
313.15 K	1080.3 ± 2.2	1.529 ± 0.23
318.15 K	1075.31 ± 2.2	1.407 ± 0.21
323.15 K	1070.32 ± 2.2	1.304 ± 0.2
328.15 K	1065.33 ± 2.1	1.211 ± 0.18
333.15 K	1060.34 ± 2.1	1.127 ± 0.17
338.15 K	1055.34 ± 2.1	1.056 ± 0.16
343.15 K	1050.35 ± 2.1	0.989 ± 0.15
348.15 K	1045.34 ± 2.1	0.931 ± 0.14
353.15 K	1040.33 ± 2.1	0.878 ± 0.13

CN(C)C=O [dimethylformamide]
[1]
Settings	mass density [kg/m3]	viscosity [mPa·s]
303.15 K	939.18 ± 1.9	0.766 ± 0.12
308.15 K	934.41 ± 1.9	0.723 ± 0.11
313.15 K	929.64 ± 1.9	0.685 ± 0.1
318.15 K	924.86 ± 1.9	0.651 ± 0.098
323.15 K	920.07 ± 1.9	0.619 ± 0.093
328.15 K	915.26 ± 1.8	0.589 ± 0.088
333.15 K	910.44 ± 1.8	0.562 ± 0.084
338.15 K	905.6 ± 1.8	0.537 ± 0.081
343.15 K	900.74 ± 1.8	0.514 ± 0.077
348.15 K	895.87 ± 1.8	0.493 ± 0.074
353.15 K	890.98 ± 1.8	0.473 ± 0.071

CN(C)C=O [dimethylformamide] + CCCCCCn1cc[n+](C)c1.[Cl-]
[2]
Settings	mass density [kg/m3]	viscosity [mPa·s]
303.15 K	939.18 ± 1.9	0.766 ± 0.12
308.15 K	934.41 ± 1.9	0.723 ± 0.11
313.15 K	929.64 ± 1.9	0.685 ± 0.1
318.15 K	924.86 ± 1.9	0.651 ± 0.098
323.15 K	920.07 ± 1.9	0.619 ± 0.093
328.15 K	915.26 ± 1.8	0.589 ± 0.088
333.15 K	910.44 ± 1.8	0.562 ± 0.084
338.15 K	905.6 ± 1.8	0.537 ± 0.081
343.15 K	900.74 ± 1.8	0.514 ± 0.077
348.15 K	895.87 ± 1.8	0.493 ± 0.074
353.15 K	890.98 ± 1.8	0.473 ± 0.071

c1ccncc1 [pyridine]
[1]
Settings	mass density [kg/m3]	viscosity [mPa·s]
303.15 K	973.09 ± 1.9	0.843 ± 0.13
308.15 K	968.06 ± 1.9	0.789 ± 0.12
313.15 K	963.02 ± 1.9	0.741 ± 0.11
318.15 K	957.97 ± 1.9	0.697 ± 0.11
323.15 K	952.9 ± 1.9	0.658 ± 0.099
328.15 K	947.82 ± 1.9	0.622 ± 0.093
333.15 K	942.72 ± 1.9	0.59 ± 0.089
338.15 K	937.6 ± 1.9	0.56 ± 0.084
343.15 K	932.46 ± 1.9	0.533 ± 0.08
348.15 K	927.3 ± 1.9	0.507 ± 0.076
353.15 K	922.12 ± 1.9	0.485 ± 0.073

c1ccncc1 [pyridine] + CCCCCCn1cc[n+](C)c1.[Cl-]
[2]
Settings	mass density [kg/m3]	viscosity [mPa·s]
303.15 K	973.09 ± 1.9	0.843 ± 0.13
308.15 K	968.06 ± 1.9	0.789 ± 0.12
313.15 K	963.02 ± 1.9	0.741 ± 0.11
318.15 K	957.97 ± 1.9	0.697 ± 0.11
323.15 K	952.9 ± 1.9	0.658 ± 0.099
328.15 K	947.82 ± 1.9	0.622 ± 0.093
333.15 K	942.72 ± 1.9	0.59 ± 0.089
338.15 K	937.6 ± 1.9	0.56 ± 0.084
343.15 K	932.46 ± 1.9	0.533 ± 0.08
348.15 K	927.3 ± 1.9	0.507 ± 0.076
353.15 K	922.12 ± 1.9	0.485 ± 0.073
